Experimental data taken from patent US20200131156A1, “ARYLSULFONYLPYROLECARBOXAMIDE DERIVATIVES AS Kv3 POTASSIUM CHANNEL ACTIVATORS” (H. Lundbeck A/S, priority 2018, published 2020).

Key:
human Kv3.3 = target: T1, human Kv3.3 (Homo sapiens, UniProt Q14003); assay: Manual patch clamp electrophysiology, HEK-293 cells stably expressing human Kv3.3; format: cell-based; conditions: for hKv3.3 ECΔ30% increase: concentration increasing current by 30% at the −10 mV step; for hKv3.3 ECΔ5 mV: concentration that shifts activation threshold by 5 mV
T1 construct: expressed in transfected cells
T1 sequence (Q14003 1-757): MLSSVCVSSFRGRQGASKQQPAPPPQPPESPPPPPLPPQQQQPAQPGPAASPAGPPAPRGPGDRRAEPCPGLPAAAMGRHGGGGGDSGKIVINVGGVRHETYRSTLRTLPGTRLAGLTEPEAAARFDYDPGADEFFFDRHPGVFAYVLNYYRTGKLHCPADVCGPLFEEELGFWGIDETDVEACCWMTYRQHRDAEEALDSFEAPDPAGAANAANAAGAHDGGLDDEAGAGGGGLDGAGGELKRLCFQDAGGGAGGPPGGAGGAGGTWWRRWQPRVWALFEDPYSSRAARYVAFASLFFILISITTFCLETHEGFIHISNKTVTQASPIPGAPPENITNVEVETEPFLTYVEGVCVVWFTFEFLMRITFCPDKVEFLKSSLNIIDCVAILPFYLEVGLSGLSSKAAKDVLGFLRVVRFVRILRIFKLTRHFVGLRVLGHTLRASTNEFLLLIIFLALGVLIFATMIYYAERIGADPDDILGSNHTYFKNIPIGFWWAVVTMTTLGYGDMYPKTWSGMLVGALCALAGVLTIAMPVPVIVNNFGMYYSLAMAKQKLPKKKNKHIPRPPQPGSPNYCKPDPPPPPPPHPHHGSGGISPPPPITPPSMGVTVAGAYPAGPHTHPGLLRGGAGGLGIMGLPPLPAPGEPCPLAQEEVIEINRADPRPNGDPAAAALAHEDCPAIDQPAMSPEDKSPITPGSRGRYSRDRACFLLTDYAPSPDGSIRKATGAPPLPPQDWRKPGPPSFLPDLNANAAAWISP
Description: (§1) Manual Patch Clamp Electrophysiological Evaluation, hKv3.1, hKv3.2, hKv3.3, hKv3.4:
(§2) HEK-293 cells stably expressing human Kv3.1b, Kv3.2, Kv3.3 or Kv3.4 were used for the experiments.
(§3) Kv3.1b, Kv3.2: Cells were cultured in MEM medium supplemented with 10% Fetal Bovine Serum, 1% Penicillin/Streptomycin, 2 mM glutamine and 0.6 mg/mL geneticin. Cells were grown to 80-90% confluency at 37° C. and 5% CO2 Kv3.3 or Kv3.4: Cells were cultured in DMEM medium supplemented with 10% Fetal Bovine Serum, 500 ug/mL Geneticidin and 1% Penicillin/Streptomycin. Cells were grown to 80-90% confluency at 37° C. and 5% CO2.
(§4) On the day of the experiment the cells were detached by TrypLE and resuspended in culture medium. Cells were centrifuged, media removed and the cells were resuspended in extracellular buffer containing (in mM): 130 Na-gluconate, 20 NaCl, 4 KCl, 1 MgCl2, 1.8 CaCl2, 10 HEPES and 5 glucose, pH 7.3 adjusted with NaOH, 310-320 mOsm
(§5) Patch-clamp recordings were performed using a manual patch-clamp system (Axon Multiclamp 700B, Digidata 1440, pCLAMP 10, Molecular Devices Corporation) with a fast perfusion system (RSC-160 Rapid solution Changer, BioLogic). Whole-cell recordings were carried out using an intracellular solution containing (in mM): 100 K-gluconate, 40 KCl, 10 HEPES, 1 EGTA, 1 MgCl2, pH 7.2 adjusted with KOH, 290-300 mOsm. Cell membrane potentials were held at −80 mV and current voltage-relationship was generated by voltage steps (50 ms duration) from −100 mV to +10 mV (in 10 mV increments) and then back to −100 mV for 50 ms, with inter-sweep interval of 3 s. The peak current amplitude of −10 mV was monitored until stable (<5% change) by using one step voltage protocol. One IV protocol was run as baseline, then compound perfusion was stared and peak current stability was monitored with single step protocol prior to the IV protocol. Single concentrations were measured per cell. Acceptable cells had seal resistance >500 MOhm, Access resistance <10 MOhm, and leak current <200 pA.
(§6) Data analysis was performed using Clampfit (V10.2) in combination with Microsoft Excel™ (Redmond, Wash., USA). Current voltage relationships were plotted from the peak current (baseline subtracted) at the individual voltage steps normalized to the vehicle addition at 10 mV. The voltage threshold for channel activation was defined as 5% activation of the peak current at 10 mV in presence of vehicle. […] The concentration needed to shift the threshold 5 mV was readout from this curve (ECΔ5 mV), as well as the ability to increase the peak current at the −10 mV step (EC30% increase). […]

human Kv3.4 = target: T2, human Kv3.4 (Homo sapiens, UniProt Q03721); assay: Manual patch clamp electrophysiology, HEK-293 cells stably expressing human Kv3.4; format: cell-based; conditions: for hKv3.4 ECΔ30% increase: concentration increasing current by 30% at the −10 mV step; for hKv3.4 ECΔ5 mV: concentration that shifts activation threshold by 5 mV
T2 construct: expressed in transfected cells
T2 sequence (Q03721 1-635): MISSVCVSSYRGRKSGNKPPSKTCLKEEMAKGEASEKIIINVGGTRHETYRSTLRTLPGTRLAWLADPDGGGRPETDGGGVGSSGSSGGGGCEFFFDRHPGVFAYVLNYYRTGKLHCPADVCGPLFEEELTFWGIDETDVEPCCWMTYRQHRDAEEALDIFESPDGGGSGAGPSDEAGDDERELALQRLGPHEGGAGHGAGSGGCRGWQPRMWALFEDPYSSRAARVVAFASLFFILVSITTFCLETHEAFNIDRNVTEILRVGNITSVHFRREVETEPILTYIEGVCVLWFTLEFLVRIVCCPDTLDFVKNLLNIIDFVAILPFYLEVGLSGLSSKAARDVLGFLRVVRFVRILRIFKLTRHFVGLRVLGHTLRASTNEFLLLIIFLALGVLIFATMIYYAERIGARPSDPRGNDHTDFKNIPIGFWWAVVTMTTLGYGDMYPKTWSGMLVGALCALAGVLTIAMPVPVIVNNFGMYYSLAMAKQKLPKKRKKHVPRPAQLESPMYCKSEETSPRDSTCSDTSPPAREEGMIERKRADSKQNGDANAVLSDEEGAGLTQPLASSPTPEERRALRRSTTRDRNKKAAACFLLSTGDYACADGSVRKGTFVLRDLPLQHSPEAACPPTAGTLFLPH
Description: as §1, §2, §3, §4, §5, §6

hKv3.3 ECΔ30% increase (human Kv3.3) [µM] | hKv3.3 ECΔ5 mV (human Kv3.3) [µM] | hKv3.4 ECΔ30% increase (human Kv3.4) [µM] | hKv3.4 ECΔ5 mV (human Kv3.4) [µM] | Structure (SMILES)
>30 | 4.9 | >30 | 14.4 | Cc1ccc(S(=O)(=O)n2ccc(C(=O)NCc3ncco3)c2)cc1 [Compound 86, 1-(4-methylbenzene-1-sulfonyl)-N-[(1,3-oxazol-2-yl)methyl]-1H-pyrrole-3-carboxamide]
2.7 | 2.7 | >30 | >30 | Cc1cnc(CNC(=O)c2ccn(S(=O)(=O)c3ccc(F)cc3C)c2)cn1 [Compound 90, 1-(4-fluoro-2-methylbenzene-1-sulfonyl)-N-[(5-methylpyrazin-2-yl)methyl]-1H-pyrrole-3-carboxamide]
